Assay results reported in PubChem BioAssay AID2743 (NMMLSC, 2010).
Activity calls are given as the source filed them.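 The calls were made as follows: active = fitted half-maximal concentration for change in GFP expression of 33 µM or less; inactive = the rest.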

Experiment: concentration-dependent AGP1-GFP change, TOR pathway – cell-based, flow cytometry, S. cerevisiae, MLPCN hits, dose response (AID 2743)
Conditions: S. cerevisiae AGP1-GFP strain, flow cytometry GFP, 3 h; at 33 µM (top of the series)

SMILES | GFP fluorescence (kMESF)
O=S(=O)(/N=C(/Sc1ccccc1)c1ccccc1)c1ccccc1 | 41 kMESF (inactive)
O=C(O)c1ccc2c(c1)C(=O)/C(=C/c1ccccc1)C2=O | 40.5 kMESF (inactive)
O=C(C#Cc1ccccc1)c1cccc([N+](=O)[O-])c1 | 52 kMESF (inactive)
CN(O)/C=c1/ccc2c(n1)C(=O)C=CC=2 | 39.5 kMESF (inactive)
CCCCC(=O)NC(=S)NNC(=O)CCc1ccccc1 | 28.1 kMESF (inactive)
Cc1ccc(C(c2cc(Cl)c3cccnc3c2O)N2CCN(C)CC2)cc1 (configuration not stated) | 27.9 kMESF (inactive)
CCCCc1ccc(NC(=O)CC(C)=O)cc1 | 37.2 kMESF (inactive)
COc1ccccc1C(=O)NNC(=S)NC(=O)c1ccco1 | 38.7 kMESF (inactive)
O=C1Nc2ccc(Br)cc2/C1=C/C(=O)c1ccc2c(c1)OCO2 | 46.7 kMESF (inactive)
COc1cc(/C=C/[N+](=O)[O-])ccc1O | 32.3 kMESF (inactive)
N/C(Cc1ccc(Cl)cc1)=N\OC(=O)c1ccccc1 | 23.8 kMESF (inactive)
C/C(=N/NC(=O)c1ccc(C(C)(C)C)cc1)c1ccccn1 | 55.7 kMESF (inactive)
C/C(=N\NC(=O)c1cc2ccccc2cc1O)c1ccccn1 | 47.9 kMESF (inactive)
CC1=C/C(=N\OS(=O)(=O)c2ccccc2)C(C(C)C)=CC1=O | 28.8 kMESF (inactive)
Oc1ccc(N=Nc2ccccc2)o1 | 49 kMESF (inactive)
Cc1ccc(C(=O)NNC(=S)NC(=O)c2ccco2)cc1 | 44.1 kMESF (inactive)
COc1cccc2c(=O)c(C(=O)NCc3cccs3)c[nH]c12 | 35.4 kMESF (inactive)
Cc1cc2ccccn2c1C(=O)c1ccc([N+](=O)[O-])o1 | 26 kMESF (inactive)
Cc1ccc(S(=O)(=O)N2CC(C(=O)O)=CC[C@H]2c2ccc(Cl)cc2)cc1 | 39.2 kMESF (inactive)
CCOc1ccc(NC2=C(Cl)C(=O)N(Cc3ccccc3)C2=O)cc1 | 41.3 kMESF (inactive)
CC(C)(C)C(=O)NC(=S)NNC(=O)c1sc2ccccc2c1Cl | 34.2 kMESF (inactive)
Cc1cccc(N=C2NC(=O)/C(=C/C=C/c3ccco3)S2)c1C | 23.3 kMESF (inactive)
CC(=O)NN1C(=O)/C(=C/c2ccc(Br)o2)SC1=S | 40.5 kMESF (inactive)

SMILES | GFP fluorescence (kMESF)
Oc1c(C(Nc2cccc(C(F)(F)F)c2)c2ccncc2)ccc2cccnc12 (configuration not stated) | 30.3 kMESF (inactive)
O=C1NC(=O)N(CCc2ccc(F)cc2)C(=O)/C1=C/c1cccs1 | 39.1 kMESF (inactive)
O=C(O)c1ccccc1SC1CC(=O)N(c2ccc3c(c2)OCO3)C1=O (configuration not stated) | 47.9 kMESF (inactive)
O=C(Oc1oc(-c2ccco2)nc1C=Nc1ccccc1)c1ccco1 | 43.5 kMESF (inactive)
O=C(/C=C/c1ccc(Br)cc1)NC(=S)NNC(=O)c1ccco1 | 36.3 kMESF (inactive)
O=C1NC(=O)N(c2ccccc2)C(=O)/C1=C/c1ccc(Sc2ccccc2)o1 | 35.9 kMESF (inactive)
O=C(/C=C/c1cccc([N+](=O)[O-])c1)c1ccc([N+](=O)[O-])o1 | 10.4 kMESF (inactive)
C=CCOc1ccc(C(=O)/C=C2/C(=O)Nc3ccccc32)cc1 | 46.5 kMESF (inactive)
O=C(/C=C/c1ccc(Cl)c([N+](=O)[O-])c1)c1cccnc1 | 35.8 kMESF (inactive)
C/C(=N\NC(=O)c1cccc(Br)c1)c1ccccn1 | 42.1 kMESF (inactive)
CSC1=NS(=O)(=O)c2c(C)nn(C)c2S1 | 45.6 kMESF (inactive)
COc1ccc(CCNC2=C(Cl)C(=O)N(CCc3ccc(OC)c(OC)c3)C2=O)cc1OC | 41.5 kMESF (inactive)
COc1ccc(C(=O)NC(=S)NNC(=O)c2cnccn2)cc1 | 42.8 kMESF (inactive)
Cc1ccc(NN2C(=O)C=C(c3ccc(Cl)cc3)C2=O)cc1 | 44.4 kMESF (inactive)
O=C(Nc1nnc(-c2ccc(F)cc2)o1)c1cccc([N+](=O)[O-])c1 | 44.5 kMESF (inactive)
C#CCOCCOCCOCCNc1nc(N2CCN(C(=O)CCCCCCCCCCNC(=O)[C@@H](CCC(=O)O)n3cc(CCCCCN)nn3)CC2)nc(N2CCN(C(=O)CCCCCCCCCCNC(=O)[C@H](CCCCN)n3cc(C[C@@H](C)CC)nn3)CC2)n1 | 51.4 kMESF (inactive)
CS(=O)(=O)N1N=C(c2ccccc2)CC1c1ccc2c(c1)OCO2 (configuration not stated) | 126 kMESF (inactive)
C/C(=N\Nc1ncnc2sc(C)c(C)c12)c1ccccn1 | 26.5 kMESF (inactive)
O=C(NNC(=S)NC(=O)c1ccco1)c1ccc(F)cc1 | 43.7 kMESF (inactive)
Clc1cnc(N/N=C/c2cccs2)c(Cl)c1 | 40.5 kMESF (inactive)
CCc1cccc2sc(N3CCN(C(=O)c4ccc([N+](=O)[O-])o4)CC3)nc12 | 12.4 kMESF (inactive)
Cc1c(NC2=C(Cl)C(=O)N(c3ccccc3Cl)C2=O)c(=O)n(-c2ccccc2)n1C | 38.1 kMESF (inactive)
CCCc1cc(NCc2ccccn2)n2nc(C)c(-c3ccccc3)c2n1 | 40.4 kMESF (inactive)

SMILES | GFP fluorescence (kMESF)
O=C1N(c2ccccc2C(F)(F)F)OC1(Cc1ccccc1)c1ccccc1 (configuration not stated) | 41.5 kMESF (inactive)
Cc1ccc2[nH]cc(/C=C/c3cc[n+](C)cc3)c2c1 | 48.3 kMESF (inactive)
Cc1[nH]c(-c2ccccn2)nc(=S)c1Cl | 51 kMESF (inactive)
COc1ccc(N2C(=O)C(Cl)=C(Oc3cccc(OC)c3)C2=O)cc1 | 38.8 kMESF (inactive)
Cc1ccccc1OCCOC(=O)c1ccc(S(=O)(=O)N2CCCC2)cc1 | 38.1 kMESF (inactive)
COc1ccc2c(c1)c(/C=C/c1cc[n+](C)cc1)cn2C | 46.7 kMESF (inactive)
CCOC(=O)C(C(=O)OCC)C(C(=O)OCC)N1CCOCC1 (configuration not stated) | 41 kMESF (inactive)
CCCc1nnc(NC(=O)c2c(O)c3cccc4c3n(c2=O)CCC4)s1 | 2.53 kMESF (inactive)
O=C(/C=C/c1cccc(Cl)c1)c1nc2ccccc2[nH]1 | 29.7 kMESF (inactive)
Cn1ncc2c(O/N=C(\N)c3ccc(C(C)(C)C)cc3)ncnc21 | 24.7 kMESF (inactive)
O=[N+]([O-])c1ccc(N=Nc2c(Cl)cc(O)cc2Cl)cc1 | 41.8 kMESF (inactive)
CC(=O)Nc1ncnc2c1c(-c1ccc(Cl)cc1)nn2C(C)(C)C | 30.3 kMESF (inactive)
Cc1ccc(S(=O)(=O)c2ncccc2[N+](=O)[O-])cc1 | 47.1 kMESF (inactive)
Cc1cc(S(=O)(=O)ON2C(=O)c3ccccc3C2=O)ccc1F | 43.2 kMESF (inactive)
CN(C)c1ccc(N=Cc2nc(-c3ccccc3)oc2OC(=O)c2ccccc2)cc1 | 43 kMESF (inactive)
O=C1N(c2ccccc2C(F)(F)F)O[C@@]1(c1ccccc1)C1CCCC1 | 38.4 kMESF (inactive)
CC(C)(C)n1nc(-c2ccc(Cl)cc2)c2c(N)ncnc21 | 39.9 kMESF (inactive)
Cn1ncc(S(=O)(=O)Cc2ccccc2)c(Cl)c1=O | 43.9 kMESF (inactive)
O=C1ON=C(c2ccccc2)/C1=C\c1ccco1 | 42.7 kMESF (inactive)
O=S(=O)(/N=C(\Sc1ccc(Cl)cc1)c1ccccc1)c1ccccc1 | 36.1 kMESF (inactive)
C=CCN1C(=O)/C(=C/c2ccc(-c3ccc(F)cc3)o2)SC1=S | 35.3 kMESF (inactive)
O=C(/C=C/Sc1ncn[nH]1)c1ccc(Cl)cc1 | 38 kMESF (inactive)
O=C(Oc1oc(-c2ccco2)nc1C=Nc1ccc(Cl)cc1)c1ccco1 | 42 kMESF (inactive)

SMILES | GFP fluorescence (kMESF)
O=[N+]([O-])c1cc(Cl)c2cccnc2c1O | 22.6 kMESF (inactive)
O=C(c1ccc(Cl)cc1)N1CCN(c2cccc3[nH]ccc23)CC1 | 46.1 kMESF (inactive)
O=C1C(=O)c2ccccc2-c2ccccc21 | 17.5 kMESF (inactive)
Nc1ccccc1C#CC(=O)c1ccccc1 | 31.7 kMESF (inactive)
COc1ccccc1[C@]1(C)ON(c2ccccc2C(F)(F)F)C1=O | 30.3 kMESF (inactive)
O=C(COc1c(Br)cc(Br)c2cccnc12)N1CCc2ccccc2C1 | 28.6 kMESF (inactive)
O=C1ON=C(c2ccccc2)/C1=C/c1ccco1 | 41.7 kMESF (inactive)
CN(C)/C=C/C(=O)c1ccc(-c2ccc(Cl)cc2Cl)o1 | 27.8 kMESF (inactive)
CCCCc1ccc(/C=C2/C(=O)ON=C2c2ccccc2)s1 | 38.4 kMESF (inactive)
COc1ccc(Cl)cc1C(Nc1cccnc1)c1ccc2cccnc2c1O (configuration not stated) | 36.3 kMESF (inactive)
O=[N+]([O-])c1ccc(S(=O)(=O)c2ccccc2)nc1 | 44.6 kMESF (inactive)
CCc1ccc(/C=C/C(=O)c2cc(Br)ccc(=O)c2O)cc1 | 22.2 kMESF (inactive)
COc1ccc2c(c1)c1nnc(SC)nc1n2C | 17.9 kMESF (inactive)
Cc1ccsc1/C=N/Nc1ncc(Cl)cc1Cl | 36 kMESF (inactive)
CC(C)(C)C(=O)NC(=S)NNC(=O)c1ccc(-c2ccccc2)cc1 | 44.1 kMESF (inactive)
Nc1ccc2ccc3cccc[n+]3c2c1 | 42.9 kMESF (inactive)
Cc1cc(NC(=O)c2cccnc2Cl)ccc1NC(=O)c1cc2ccccc2o1 | 42.4 kMESF (inactive)
COc1cccc(/C=C/C(=O)c2c(O)cc(C)oc2=O)c1O | 43.2 kMESF (inactive)
Nc1ccc(Br)c2c1C(=O)c1ccccc1C2=O | 27.1 kMESF (inactive)
Cc1ccc2[nH]c(C)c(/C=C/c3cc[n+](C)cc3)c2c1 | 38.4 kMESF (inactive)
Cc1ccc(-c2nc(C)sc2CC(=O)Nc2nnc(C)s2)cc1 | 34.5 kMESF (inactive)
O=c1c2cc(Br)ccc2nc(-c2ccc([N+](=O)[O-])cc2)n1O | 29.6 kMESF (inactive)
Cc1cc(=O)oc2cc(Oc3ccc([N+](=O)[O-])cc3C(F)(F)F)ccc12 | 42.1 kMESF (inactive)
